# Laboratory results reported in publication PMC5453931, “Cathelicidin-trypsin inhibitor loop conjugate represents a promising antibiotic candidate with protease stability” (Scientific Reports, 2017).
# Where a SMILES comes first, the peptide text is derived from it. Bridges are numbered along the chain shown (N, C = ends).
# How the values were obtained:
# Aeromonas veronii = assay: microbe, parasite or virus in culture; assay type: cell-based; conditions: 18 h
# Experimental: (§1) A two-fold broth microdilution method described in our previous paper was used to determine the antimicrobial activities of parental and hybrid peptides. More than 30 strains including Gram-negative bacteria, Gram-positive bacteria and fungi were used in the current assay, in which the standard strains were stored in our lab and the clinical strains were collected from local hospitals. Briefly, bacteria were incubated in Mueller-Hinton broth (MH broth) at 37 °C to exponential phase and diluted to 10^6 CFU/mL. A serial dilution of peptide sample were prepared in 96-well microtiter plates (50 μL) and mixed with equal volume of microbial inoculums (50 μL). The plate was slowly shaken in the microbial incubator, and measured at A595 after incubation at 37 °C for 18 h. The minimal concentrations at which no microbial growth occurred were recorded as MIC (minimal inhibitory concentration) values. The traditional antibiotic ampicillin was used as positive control. The results are shown in an average of the MICs obtained from three independent experiments.
# E. Coli 08032823 = assay: microbe, parasite or virus in culture; assay type: cell-based; conditions: 08032823, 18 h
# Experimental: as §1
# S. Maltophilia 090223 = assay: microbe, parasite or virus in culture; assay type: cell-based; conditions: 090223, 18 h
# Experimental: as §1
# [1] = tested on: Enterococcus faecium 08052315; assay: microbe, parasite or virus in culture; assay type: cell-based; conditions: 08052315, 18 h
# Experimental: as §1
# Vibrio brasiiensis = assay: microbe, parasite or virus in culture; assay type: cell-based; conditions: 18 h
# Experimental: as §1
# S. Aureus 08032706 = assay: microbe, parasite or virus in culture; assay type: cell-based; conditions: Gram-positive; two-fold broth microdilution, MH broth, 37 °C, 18 h; mean of three independent experiments in duplicates
# Experimental: as §1
# [2] = tested on: Escherichia coli ATCC25922; assay: microbe, parasite or virus in culture; assay type: cell-based; conditions: ATCC25922, 18 h
# Experimental: as §1
# [3] = tested on: Nocardia asteroides 08052412; assay: microbe, parasite or virus in culture; assay type: cell-based; conditions: 18 h
# Experimental: as §1
# Proteus mirabilis 1376 = assay: microbe, parasite or virus in culture; assay type: cell-based; conditions: Gram-negative; two-fold broth microdilution, MH broth, 37 °C, 18 h; mean of three independent experiments in duplicates
# Experimental: as §1
# Vibrio cholerae = assay: microbe, parasite or virus in culture; assay type: cell-based; conditions: 18 h
# Experimental: as §1
# Edwardsiella tarda = assay: microbe, parasite or virus in culture; assay type: cell-based; conditions: Aquatic pathogenic bacteria; two-fold broth microdilution, 37 °C, 18 h; mean of three independent experiments in duplicates
# Experimental: as §1
# K. Pneumoniae 08031012 = assay: microbe, parasite or virus in culture; assay type: cell-based; conditions: Gram-negative; two-fold broth microdilution, MH broth, 37 °C, 18 h; mean of three independent experiments in duplicates
# Experimental: as §1
# Candida glabrata 08A802 = assay: microbe, parasite or virus in culture; assay type: cell-based; conditions: 08A802, 18 h
# Experimental: as §1
# [4] = tested on: Bacillus subtilis 08042313; assay: microbe, parasite or virus in culture; assay type: cell-based; conditions: 08042313, 18 h
# Experimental: as §1
# Aeromonas sobria = assay: microbe, parasite or virus in culture; assay type: cell-based; conditions: 18 h
# Experimental: as §1
# [5] = tested on: Candida albicans 08030102; assay: microbe, parasite or virus in culture; assay type: cell-based; conditions: 08030102, 18 h
# Experimental: as §1
# K. Pneumoniae 08040202 = assay: microbe, parasite or virus in culture; assay type: cell-based; conditions: Gram-negative; two-fold broth microdilution, MH broth, 37 °C, 18 h; mean of three independent experiments in duplicates
# Experimental: as §1
# P. Aeruginosa 08021015 = assay: microbe, parasite or virus in culture; assay type: cell-based; conditions: Gram-negative; two-fold broth microdilution, MH broth, 37 °C, 18 h; mean of three independent experiments in duplicates
# Experimental: as §1
# Vibrio harveyi = assay: microbe, parasite or virus in culture; assay type: cell-based; conditions: 18 h
# Experimental: as §1
# S. Aureus 08032810 = assay: microbe, parasite or virus in culture; assay type: cell-based; conditions: Gram-positive; two-fold broth microdilution, MH broth, 37 °C, 18 h; mean of three independent experiments in duplicates
# Experimental: as §1
# S. Aureus 08032615 = assay: microbe, parasite or virus in culture; assay type: cell-based; conditions: Gram-positive; two-fold broth microdilution, MH broth, 37 °C, 18 h; mean of three independent experiments in duplicates
# Experimental: as §1
# trypsin = assay: Trypsin inhibition assay (NBLAN hydrolysis, Dixon method); assay type: biochemical; conditions: 50 mM Tris–HCl pH 7.8, trypsin 0.1 mg/mL, 5 min pre-incubation at 37 °C, substrate NBLAN 48, 96, 192 μg/mL, 405 nm
# Experimental: The inhibition effect on the hydrolysis of synthetic chromogenic substrate by trypsin was assayed in 50 mM Tris–HCl, pH 7.8 buffer at room temperature. The trypsin of final concentration of 0.1 mg/mL and different amounts of the hybrid peptide (final concentrations ranging from 0 to 0.16 μg/mL) were pre-incubated for 5 min at 37 °C. N-α-Benzoyl-DL-arginine p-nitroanilide hydrochloride (NBLAN) was used as a substrate for trypsin. The reaction was initiated by the addition of NBLAN with a final concentration of 48, 96 and 192 μg/mL, respectively. The formation of yellow product, p-nitroaniline was monitored continuously at 405 nm[61]. The inhibition constant Ki of the hybrid peptides were determined according to the method of Dixon (1953)[62].
# Vibrio Parahaemolyticus = assay: MIC, two-fold broth microdilution; assay type: cell-based; conditions: Aquatic pathogenic bacteria; two-fold broth microdilution, 37 °C, 18 h; mean of three independent experiments in duplicates
# Experimental: as §1
# [6] = tested on: Staphylococcus epidermidis; assay: MIC, two-fold broth microdilution; assay type: cell-based; conditions: Gram-positive; two-fold broth microdilution, MH broth, 37 °C, 18 h; mean of three independent experiments in duplicates
# Experimental: as §1
# E. Coli 08032813 = assay: MIC, two-fold broth microdilution; assay type: cell-based; conditions: Gram-negative; two-fold broth microdilution, MH broth, 37 °C, 18 h; mean of three independent experiments in duplicates
# Experimental: as §1
# E. coli 08040726 [7] = assay: MIC, two-fold broth microdilution (second listing of the strain number); assay type: cell-based; conditions: Gram-negative, MH broth, 37 °C, 18 h, mean of three independent experiments in duplicates
# Experimental: as §1
# [8] = tested on: established C. albicans biofilm; assay: Biofilm disruption assay, established biofilm (XTT, PI/SYBR Green I); assay type: cell-based
# Experimental: TIH3F that has the best antifungal activity among the four peptides was chosen to examine the effect on the C. albicans biofilm formation and the established biofilm using previously described method with minor modifications. In the biofilm inhibition assay, after the incubation at 35 °C, C. Albicans was diluted to 1 × 10^6 CFU/mL in RPMI-1640 medium. Then 2 mL culture was added to each well of 6-well plates with coverslips at the bottom, and incubated at 35 °C in a humid chamber for 3 h. Non-adherent cells were then washed away by PBS, and series concentrations of TIH3F (0, 1, 2, 4 μg/mL) were added into the plate, with amphotericin B as control. The formation of the biofilm was determined by the XTT Cell Proliferation and Cytotoxicity Kit (KeyGEN BioTECH, Nanjing, China) after 36-h incubation. In the biofilm disruption assay, the biofilm was preformed as described above but with a longer incubation time up to 72 h. Then TIH3F and amphotericin B of series concentrations (0, 2.5, 5, 10, 25, 50 μg/mL) was added after non-adherent cells were washed out. The measurement of remaining biofilm was then determined. In order to further confirm the antifungal effect of TIH3F against C. albicans encased in biofilms, the established biofilm was treated with TIH3F (0, 5, 50 μg/mL), washed three times with PBS, and finally stained with 1 mL 1000-fold diluted PI/SYBR Green I at 30 °C in the dark for 20 min. After washing with PBS, the plate was immediately photographed with fluorescence microscope.
# E. coli 08040726 [9] = assay: Bacterial killing kinetic assay, colony counting; assay type: cell-based
# Experimental: The bacterial killing kinetics of the hybrid peptides against E. coli 08040726 was determined by counting the changes in the viable bacterial clones after peptide treatment. The experiment was carried out according to the method described previously with minor modifications. Fresh colonies of the bacteria were incubated in MH broth at 37 °C for 12 h and diluted to 10^6 CFU/in fresh MH broth. The hybrid peptide was added to the bacterial suspension with a final concentration of 1x and 5x corresponding MICs, and incubated at 37 °C for 0, 10, 20, 30, 45, 60, 90, 120, and 180 mins. At each time point, aliquots (50 μL) were removed and diluted with fresh MH broth for 1000 times. […] of the dilutions were coated on MH agar plates, incubated overnight at 37 °C, and the viable colonies were counted. Ampicillin was used as positive control and sterile deionized water was used as negative control.
compound,measurement,setting,value
CC[C@H](C)[C@@H]1NC(=O)[C@H](CO)NC(=O)[C@H](CCCCN)NC(=O)[C@H]([C@@H](C)O)NC(=O)[C@H](Cc2c[nH]c3ccccc23)NC(=O)[C@@H](NC(=O)[C@H](Cc2ccccc2)NC(=O)[C@H](CCCCN)NC(=O)[C@H](CCCCN)NC(=O)[C@H](Cc2ccccc2)NC(=O)[C@H](C)NC(=O)[C@H](CCCNC(=N)N)NC(=O)[C@H](CCCNC(=N)N)NC(=O)[C@H](Cc2ccccc2)NC(=O)[C@H](CO)NC(=O)[C@H](CCCCN)NC(=O)[C@H](Cc2ccccc2)NC(=O)[C@H](Cc2ccccc2)NC(=O)[C@H](CCCNC(=N)N)NC(=O)[C@H](CCCCN)NC(=O)[C@H](Cc2ccccc2)NC(=O)[C@H](Cc2ccccc2)NC(=O)[C@@H](N)CCCCN)CSSC[C@@H](C(=O)O)NC(=O)[C@@H]2CCCN2C(=O)[C@H](CCCCN)NC(=O)[C@@H]2CCCN2C(=O)[C@@H]2CCCN2C1=O [H3TIF] (H-KFFKRFFKSFRRAFKKFCWTKSIPPKPC-OH; disulfide 18-28),MIC Aeromonas veronii,Aeromonas veronii,9.38 µg/mL
same,MIC E. Coli 08032823,E. Coli 08032823,37.5 µg/mL
same,MIC S. Maltophilia 090223,S. Maltophilia 090223,4.69 µg/mL
same,MIC Enterococcus faecium 08052315,[1],9.38 µg/mL
same,MIC Vibrio brasiiensis,Vibrio brasiiensis,4.69 µg/mL
same,MIC S. Aureus 08032706,S. Aureus 08032706,— (no detectable activity in MIC assay in dose of 200 µg/mL or in trypsin inhibition assay at concentration of 160 μg/mL)
same,MIC Escherichia coli ATCC25922,[2],37.5 µg/mL
same,MIC Nocardia asteroides 08052412,[3],4.69 µg/mL
same,MIC Proteus mirabilis 1376,Proteus mirabilis 1376,— (no detectable activity in MIC assay in dose of 200 µg/mL or in trypsin inhibition assay at concentration of 160 μg/mL)
same,MIC Vibrio cholerae,Vibrio cholerae,9.38 µg/mL
same,MIC Edwardsiella tarda,Edwardsiella tarda,— (no detectable activity in MIC assay in dose of 200 µg/mL or in trypsin inhibition assay at concentration of 160 μg/mL)
same,MIC K. Pneumoniae 08031012,K. Pneumoniae 08031012,— (no detectable activity in MIC assay in dose of 200 µg/mL or in trypsin inhibition assay at concentration of 160 μg/mL)
same,MIC Candida glabrata 08A802,Candida glabrata 08A802,9.38 µg/mL
same,MIC Bacillus subtilis 08042313,[4],37.5 µg/mL
same,MIC Aeromonas sobria,Aeromonas sobria,18.75 µg/mL
same,MIC Candida albicans 08030102,[5],4.69 µg/mL
same,MIC K. Pneumoniae 08040202,K. Pneumoniae 08040202,— (no detectable activity in MIC assay in dose of 200 µg/mL or in trypsin inhibition assay at concentration of 160 μg/mL)
same,MIC P. Aeruginosa 08021015,P. Aeruginosa 08021015,— (no detectable activity in MIC assay in dose of 200 µg/mL or in trypsin inhibition assay at concentration of 160 μg/mL)
same,MIC Vibrio harveyi,Vibrio harveyi,18.75 µg/mL
same,MIC S. Aureus 08032810,S. Aureus 08032810,— (no detectable activity in MIC assay in dose of 200 µg/mL or in trypsin inhibition assay at concentration of 160 μg/mL)
same,MIC S. Aureus 08032615,S. Aureus 08032615,— (no detectable activity in MIC assay in dose of 200 µg/mL or in trypsin inhibition assay at concentration of 160 μg/mL)
same,Ki,trypsin,6.5 µM
same,MIC Vibrio Parahaemolyticus,Vibrio Parahaemolyticus,2.37 µg/mL
same,MIC Staphylococcus epidermidis,[6],— (no detectable activity in MIC assay in dose of 200 µg/mL or in trypsin inhibition assay at concentration of 160 μg/mL)
same,MIC E. Coli 08032813,E. Coli 08032813,— (no detectable activity in MIC assay in dose of 200 µg/mL or in trypsin inhibition assay at concentration of 160 μg/mL)
same,MIC E. Coli 08040726 (second line with this strain number),E. coli 08040726 [7],— (no detectable activity in MIC assay in dose of 200 µg/mL or in trypsin inhibition assay at concentration of 160 μg/mL)
same,damage of established C. albicans biofilm,"[8]; 5 μg/mL, biofilm preformed 72 h, XTT metabolic activity, Fig. 2B",evident antifungal activity
same,killing of C. albicans in preformed biofilm,"[8]; 50 μg/mL, PI/SYBR Green I staining, fluorescence microscopy, Fig. 2C",destroy all of the cell membranes
same,time of killing toward E. coli,E. coli 08040726 [9]; 1xMIC,≤ 2 h
same,time of killing toward E. coli,E. coli 08040726 [9]; 5xMIC,≤ 0.5 h
